Assay results from PubChem BioAssay AID1259407 (Chemical Carcinogenesis Research Information System (CCRIS), 2018).
Calls of active or inactive are those of the source. No rule for the calls is given here.

Tested on: CCRIS mutagenicity, Ames/micronucleus/aberration tests
Test: CCRIS mutagenicity studies
[1] = Test System: AMES SALMONELLA TYPHIMURIUM, Strain/Indicator: TA98, Metabolic Activation: NONE, Method: PREINCUBATION
[2] = Test System: AMES SALMONELLA TYPHIMURIUM, Strain/Indicator: TA100, Metabolic Activation: NONE, Method: PREINCUBATION
[3] = Test System: AMES SALMONELLA TYPHIMURIUM, Strain/Indicator: TA1535, Metabolic Activation: NONE, Method: PREINCUBATION
[4] = Test System: AMES SALMONELLA TYPHIMURIUM, Strain/Indicator: TA1537, Metabolic Activation: NONE, Method: PREINCUBATION

COC1=CC(=O)C[C@@H](C)[C@]12Oc1c(Cl)c(OC)cc(OC)c1C2=O
mutagenic call (End Point: IN VITRO CHROMOSOMAL ABERRATIONS, Test System: PERIPHERAL HUMAN BLOOD LYMPHOCYTES, Metabolic Activation: NONE): active; positive (ploidy changes) | mutagenic call (End Point: IN VITRO MICRONUCLEUS, Test System: CHO CELLS, Metabolic Activation: RAT, LIVER, S-9, AROCLOR 1254): active; positive | mutagenic call (End Point: IN VITRO MICRONUCLEUS, Test System: V79 CELLS, Metabolic Activation: NONE): active; positive | mutagenic call (Test System: AMES SALMONELLA TYPHIMURIUM, Strain/Indicator: TA97, Metabolic Activation: HAMSTER, LIVER, S-9, AROCLOR 1254 (10 OR 30%), Method: PREINCUBATION): inactive; negative | mutagenic call (Test System: AMES SALMONELLA TYPHIMURIUM, Strain/Indicator: TA97, Metabolic Activation: NONE, Method: PREINCUBATION): inactive; negative | mutagenic call (Test System: AMES SALMONELLA TYPHIMURIUM, Strain/Indicator: TA97, Metabolic Activation: RAT, LIVER, S-9, AROCLOR 1254 (10 OR 30%), Method: PREINCUBATION): inactive; negative | mutagenic call (Test System: AMES SALMONELLA TYPHIMURIUM, Strain/Indicator: TA98, Metabolic Activation: HAMSTER, LIVER, S-9, AROCLOR 1254 (10 OR 30%), Method: PREINCUBATION): inactive; negative | mutagenic call [1]: inactive; negative | mutagenic call (Test System: AMES SALMONELLA TYPHIMURIUM, Strain/Indicator: TA98, Metabolic Activation: RAT, LIVER, S-9, AROCLOR 1254 (10 OR 30%), Method: PREINCUBATION): inactive; negative | mutagenic call (Test System: AMES SALMONELLA TYPHIMURIUM, Strain/Indicator: TA100, Metabolic Activation: HAMSTER, LIVER, S-9, AROCLOR 1254 (10 OR 30%), Method: PREINCUBATION): inactive; negative | mutagenic call [2]: inactive; negative | mutagenic call (Test System: AMES SALMONELLA TYPHIMURIUM, Strain/Indicator: TA100, Metabolic Activation: RAT, LIVER, S-9, AROCLOR 1254 (10 OR 30%), Method: PREINCUBATION): inactive; negative | mutagenic call (Test System: AMES SALMONELLA TYPHIMURIUM, Strain/Indicator: TA100, Metabolic Activation: RAT, LIVER, S-9, PHENOBARBITAL, Method: PREINCUBATION): inactive; negative | mutagenic call (Test System: AMES SALMONELLA TYPHIMURIUM, Strain/Indicator: TA1535, Metabolic Activation: HAMSTER, LIVER, S-9, AROCLOR 1254 (10 OR 30%), Method: PREINCUBATION): inactive; negative | mutagenic call [3]: inactive; negative | mutagenic call (Test System: AMES SALMONELLA TYPHIMURIUM, Strain/Indicator: TA1535, Metabolic Activation: RAT, LIVER, S-9, AROCLOR 1254 (10 OR 30%), Method: PREINCUBATION): inactive; negative | mutagenic call (Test System: AMES SALMONELLA TYPHIMURIUM, Strain/Indicator: TA1537, Metabolic Activation: HAMSTER, LIVER, S-9, AROCLOR 1254 (30%), Method: PREINCUBATION): inactive; negative | mutagenic call [4]: inactive; negative | mutagenic call (Test System: AMES SALMONELLA TYPHIMURIUM, Strain/Indicator: TA1537, Metabolic Activation: RAT, LIVER, S-9, AROCLOR 1254 (30%), Method: PREINCUBATION): inactive; negative | mutagenic call (Test System: MOUSE LYMPHOMA, Strain/Indicator: L5178Y (TK+/TK-), Metabolic Activation: NONE, Method: MICROWELL): active; positive | mutagenic call (Test System: MOUSE LYMPHOMA, Strain/Indicator: L5178Y (TK+/TK-), Metabolic Activation: S-9, Method: MICROWELL): active; positive

CCCCOB(OCCCC)OCCCC
mutagenic call (Test System: AMES SALMONELLA TYPHIMURIUM, Strain/Indicator: TA98, Metabolic Activation: HAMSTER, LIVER, S-9, AROCLOR 1254, Method: PREINCUBATION): inactive; negative | mutagenic call [1]: inactive; negative | mutagenic call (Test System: AMES SALMONELLA TYPHIMURIUM, Strain/Indicator: TA98, Metabolic Activation: RAT, LIVER, S-9, AROCLOR 1254, Method: PREINCUBATION): inactive; negative | mutagenic call (Test System: AMES SALMONELLA TYPHIMURIUM, Strain/Indicator: TA100, Metabolic Activation: HAMSTER, LIVER, S-9, AROCLOR 1254, Method: PREINCUBATION): inactive; negative | mutagenic call [2]: inactive; negative | mutagenic call (Test System: AMES SALMONELLA TYPHIMURIUM, Strain/Indicator: TA100, Metabolic Activation: RAT, LIVER, S-9, AROCLOR 1254, Method: PREINCUBATION): inactive; negative | mutagenic call (Test System: AMES SALMONELLA TYPHIMURIUM, Strain/Indicator: TA1535, Metabolic Activation: HAMSTER, LIVER, S-9, AROCLOR 1254, Method: PREINCUBATION): inactive; negative | mutagenic call [3]: inactive; negative | mutagenic call (Test System: AMES SALMONELLA TYPHIMURIUM, Strain/Indicator: TA1535, Metabolic Activation: RAT, LIVER, S-9, AROCLOR 1254, Method: PREINCUBATION): inactive; negative | mutagenic call (Test System: AMES SALMONELLA TYPHIMURIUM, Strain/Indicator: TA1537, Metabolic Activation: HAMSTER, LIVER, S-9, AROCLOR 1254, Method: PREINCUBATION): inactive; negative | mutagenic call [4]: inactive; negative | mutagenic call (Test System: AMES SALMONELLA TYPHIMURIUM, Strain/Indicator: TA1537, Metabolic Activation: RAT, LIVER, S-9, AROCLOR 1254, Method: PREINCUBATION): inactive; negative

C=C(C)C(=O)OCCCCOC(=O)C(=C)C
mutagenic call (Test System: AMES SALMONELLA TYPHIMURIUM, Strain/Indicator: TA98, Metabolic Activation: NONE, Method: STANDARD PLATE): inactive; negative | mutagenic call (Test System: AMES SALMONELLA TYPHIMURIUM, Strain/Indicator: TA98, Metabolic Activation: RAT, LIVER, S-9, AROCLOR 1254, Method: STANDARD PLATE): inactive; negative | mutagenic call (Test System: AMES SALMONELLA TYPHIMURIUM, Strain/Indicator: TA98, Metabolic Activation: RAT, LIVER, S-9, SODIUM PHENOBARBITAL, Method: STANDARD PLATE): inactive; negative | mutagenic call (Test System: AMES SALMONELLA TYPHIMURIUM, Strain/Indicator: TA100, Metabolic Activation: NONE, Method: STANDARD PLATE): inactive; negative | mutagenic call (Test System: AMES SALMONELLA TYPHIMURIUM, Strain/Indicator: TA100, Metabolic Activation: RAT, LIVER, S-9, AROCLOR 1254, Method: STANDARD PLATE): inactive; negative | mutagenic call (Test System: AMES SALMONELLA TYPHIMURIUM, Strain/Indicator: TA100, Metabolic Activation: RAT, LIVER, S-9, SODIUM PHENOBARBITAL, Method: STANDARD PLATE): inactive; negative | mutagenic call (Test System: AMES SALMONELLA TYPHIMURIUM, Strain/Indicator: TA1535, Metabolic Activation: NONE, Method: STANDARD PLATE): inactive; negative | mutagenic call (Test System: AMES SALMONELLA TYPHIMURIUM, Strain/Indicator: TA1535, Metabolic Activation: RAT, LIVER, S-9, AROCLOR 1254, Method: STANDARD PLATE): inactive; negative | mutagenic call (Test System: AMES SALMONELLA TYPHIMURIUM, Strain/Indicator: TA1535, Metabolic Activation: RAT, LIVER, S-9, SODIUM PHENOBARBITAL, Method: STANDARD PLATE): inactive; negative | mutagenic call (Test System: AMES SALMONELLA TYPHIMURIUM, Strain/Indicator: TA1537, Metabolic Activation: NONE, Method: STANDARD PLATE): inactive; negative | mutagenic call (Test System: AMES SALMONELLA TYPHIMURIUM, Strain/Indicator: TA1537, Metabolic Activation: RAT, LIVER, S-9, AROCLOR 1254, Method: STANDARD PLATE): inactive; negative | mutagenic call (Test System: AMES SALMONELLA TYPHIMURIUM, Strain/Indicator: TA1537, Metabolic Activation: RAT, LIVER, S-9, SODIUM PHENOBARBITAL, Method: STANDARD PLATE): inactive; negative | mutagenic call (Test System: AMES SALMONELLA TYPHIMURIUM, Strain/Indicator: TA1538, Metabolic Activation: NONE, Method: STANDARD PLATE): inactive; negative | mutagenic call (Test System: AMES SALMONELLA TYPHIMURIUM, Strain/Indicator: TA1538, Metabolic Activation: RAT, LIVER, S-9, AROCLOR 1254, Method: STANDARD PLATE): inactive; negative | mutagenic call (Test System: AMES SALMONELLA TYPHIMURIUM, Strain/Indicator: TA1538, Metabolic Activation: RAT, LIVER, S-9, SODIUM PHENOBARBITAL, Method: STANDARD PLATE): inactive; negative

O=C1C(=O)c2ccccc2-c2ccccc21
mutagenic call (Test System: AMES SALMONELLA TYPHIMURIUM, Strain/Indicator: TA97A, Metabolic Activation: NONE, Method: PREINCUBATION): inactive; negative | mutagenic call [1]: inactive; negative | mutagenic call [2]: inactive; negative | mutagenic call (Test System: AMES SALMONELLA TYPHIMURIUM, Strain/Indicator: TA102, Metabolic Activation: NONE, Method: PREINCUBATION): inactive; negative | mutagenic call (Test System: AMES SALMONELLA TYPHIMURIUM, Strain/Indicator: TA104, Metabolic Activation: NONE, Method: PREINCUBATION): inactive; negative
